PubChem BioAssay (NCI)
“And” between values parts separate entries of the source, which are not always exact repeats. Identical values can stand only once.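 Grown in 96-well plates, cells were treated for 48 hours with each compound at five concentrations. Insufficient inhibition: endpoint recorded as highest concentration tested. GI50: concentration for 50% inhibition of growth. The concentration for full growth arrest is given as TGI.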

Legend:
Test in all cases: inhibition of tumour cell growth, NCI panel, 48 h
COLO 205 colon = system: COLO 205 colon
NCI-H23 lung = system: NCI-H23 lung
NCI-H522 lung = system: NCI-H522 lung
OVCAR-5 ovarian = system: OVCAR-5 ovarian
RPMI-8226 leukemia = system: RPMI-8226 leukemia
SK-MEL-2 melanoma = system: SK-MEL-2 melanoma
SR leukemia = system: SR leukemia
U251 CNS = system: U251 CNS

For O=[N+]([O-])c1cc(/C=N/NS(=O)(=O)c2ccc(F)cc2)c(O)c([N+](=O)[O-])c1, the TGI (COLO 205 colon) was 34.5 µM, the TGI (NCI-H23 lung) was 60.1 µM and the TGI (NCI-H522 lung) was 46.3 µM. For the same molecule, the TGI (OVCAR-5 ovarian) was greater than 100 µM, the TGI (RPMI-8226 leukemia) was greater than 100 µM and the TGI (SK-MEL-2 melanoma) was greater than 100 µM. It also gave a TGI (SR leukemia) of 41.2 µM and a TGI (U251 CNS) of 44.7 µM.

Molecule Cc1cccc(N=C2NC(=O)C(CC(=O)Nc3ccc(Cl)cc3C)S2)c1 (stereo not drawn) has a TGI (COLO 205 colon) greater than 100 µM, a TGI (NCI-H23 lung) greater than 100 µM and a TGI (NCI-H522 lung) greater than 100 µM. For the same molecule, the TGI (OVCAR-5 ovarian) was greater than 100 µM, the TGI (RPMI-8226 leukemia) was greater than 100 µM and the TGI (SK-MEL-2 melanoma) was greater than 100 µM.

C[C@]12CCCC(=O)C1C[C@H](C(=O)O)CC2 (stereo partly drawn) gave a TGI (COLO 205 colon) greater than 100 µM, a TGI (NCI-H23 lung) greater than 100 µM and a TGI (NCI-H522 lung) greater than 100 µM. The TGI (OVCAR-5 ovarian) was greater than 100 µM, the TGI (RPMI-8226 leukemia) was greater than 100 µM and the TGI (SK-MEL-2 melanoma) was greater than 100 µM. For the same molecule, the TGI (SR leukemia) was greater than 100 µM and the TGI (U251 CNS) was greater than 100 µM.

For CCOC(=O)C1(Cc2ccc3ccccc3c2)CCCCCN1 (stereo not drawn), the TGI (COLO 205 colon) was 34.4 µM, the TGI (NCI-H23 lung) was greater than 100 µM and the TGI (RPMI-8226 leukemia) was 27.6 µM. The TGI (U251 CNS) was greater than 100 µM.

Nn1c(N=Nc2c(O)[nH]c3ccccc23)n[nH]c1=S was tested, and the TGI (COLO 205 colon) was greater than 100 µM, the TGI (NCI-H23 lung) was greater than 100 µM and the TGI (NCI-H522 lung) was greater than 100 µM. For the same molecule, the TGI (OVCAR-5 ovarian) was greater than 100 µM, the TGI (RPMI-8226 leukemia) was greater than 100 µM and the TGI (SK-MEL-2 melanoma) was greater than 100 µM. For the same molecule, the TGI (SR leukemia) was greater than 100 µM and the TGI (U251 CNS) was greater than 100 µM.

Molecule CC12OC3CC(O1)C1(C=O)C4CCC5(C)C(c6ccc(=O)oc6)CCC5(O)C4CCC1(C3)O2 (stereo not drawn) has a TGI (COLO 205 colon) of 1.69 µM, a TGI (NCI-H522 lung) of 0.317 µM and a TGI (OVCAR-5 ovarian) of 1.19 µM. The TGI (RPMI-8226 leukemia) was 0.304 µM, the TGI (SK-MEL-2 melanoma) was 0.79 µM and the TGI (SR leukemia) was 0.245 µM. It also gave a TGI (U251 CNS) of 1.24 µM.

CCC[CH2][Sn]1([CH2]CCC)[O]C(=O)c2cc(C)ccc2[O]1 showed a GI50 (COLO 205 colon) of 0.46 µM, a TGI (COLO 205 colon) of 1.5 µM and a GI50 (NCI-H23 lung) of 0.332 µM. It also gave a TGI (NCI-H23 lung) of 1.29 µM, a GI50 (NCI-H522 lung) of 0.0859 µM and a TGI (NCI-H522 lung) of 0.232 µM. It also gave a GI50 (OVCAR-5 ovarian) of 1.66 µM, a TGI (OVCAR-5 ovarian) of 3.04 µM and a GI50 (RPMI-8226 leukemia) of 0.193 µM. It also gave a TGI (RPMI-8226 leukemia) of 0.599 µM, a GI50 (SK-MEL-2 melanoma) of 0.303 µM and a TGI (SK-MEL-2 melanoma) of 0.808 µM. For the same molecule, the GI50 (SR leukemia) was 0.295 µM, the TGI (SR leukemia) was 1.28 µM and the GI50 (U251 CNS) was 0.462 µM. For the same molecule, the TGI (U251 CNS) was 1.54 µM.

Work on N#CC12Cc3ccc4c(c3-c3cccc(c31)CCN2C(=O)c1ccccc1)OCO4 (stereo not drawn) yielded a TGI (COLO 205 colon) greater than 100 µM, a TGI (NCI-H23 lung) greater than 100 µM and a TGI (OVCAR-5 ovarian) greater than 100 µM. For the same molecule, the TGI (RPMI-8226 leukemia) was greater than 100 µM, the TGI (SR leukemia) was greater than 100 µM and the TGI (U251 CNS) was greater than 100 µM.

In the case of CC12C(=O)N(CCN)C(=O)C1C1c3ccccc3C2c2ccccc21 (stereo not drawn), the TGI (COLO 205 colon) is reported as greater than 100 µM, the TGI (NCI-H23 lung) is reported as greater than 100 µM and the TGI (NCI-H522 lung) is reported as greater than 100 µM. It also gave a TGI (OVCAR-5 ovarian) greater than 100 µM, a TGI (RPMI-8226 leukemia) greater than 100 µM and a TGI (SK-MEL-2 melanoma) greater than 100 µM. It also gave a TGI (U251 CNS) greater than 100 µM.

In the case of Cc1cc(C)c2[s+]snc2c1, the TGI (COLO 205 colon) is reported as greater than 100 µM, the TGI (NCI-H23 lung) is reported as greater than 100 µM and the TGI (NCI-H522 lung) is reported as 77.6 µM. It also gave a TGI (OVCAR-5 ovarian) greater than 100 µM, a TGI (SK-MEL-2 melanoma) greater than 100 µM and a TGI (SR leukemia) of 77 µM. It also gave a TGI (U251 CNS) greater than 100 µM.

For CCOc1ccc(NC(=O)CCC(=O)NN)cc1, the TGI (COLO 205 colon) was greater than 100 µM, the TGI (NCI-H23 lung) was greater than 100 µM and the TGI (NCI-H522 lung) was greater than 100 µM. The TGI (OVCAR-5 ovarian) was greater than 100 µM, the TGI (RPMI-8226 leukemia) was greater than 100 µM and the TGI (SK-MEL-2 melanoma) was greater than 100 µM. For the same molecule, the TGI (U251 CNS) was greater than 100 µM.

NNC(=S)N/N=C/C(Cl)=C(\Cl)C(=O)O was tested, and the TGI (NCI-H23 lung) was greater than 100 µM, the TGI (NCI-H522 lung) was greater than 100 µM and the TGI (OVCAR-5 ovarian) was greater than 100 µM. It also gave a TGI (RPMI-8226 leukemia) greater than 100 µM, a TGI (SK-MEL-2 melanoma) greater than 100 µM and a TGI (SR leukemia) greater than 100 µM. The TGI (U251 CNS) was greater than 100 µM.

For N#Cc1ccccc1Nc1ccccc1S, the TGI (COLO 205 colon) was greater than 100 µM, the TGI (NCI-H23 lung) was greater than 100 µM and the TGI (OVCAR-5 ovarian) was 97.8 µM. For the same molecule, the TGI (SK-MEL-2 melanoma) was greater than 100 µM and the TGI (SR leukemia) was greater than 100 µM.

Work on NC(=O)CCC(NC(=O)C(F)(F)F)C(=O)O (stereo not drawn) yielded a TGI (COLO 205 colon) greater than 100 µM, a TGI (NCI-H23 lung) greater than 100 µM and a TGI (NCI-H522 lung) greater than 100 µM. The TGI (OVCAR-5 ovarian) was greater than 100 µM, the TGI (RPMI-8226 leukemia) was greater than 100 µM and the TGI (SK-MEL-2 melanoma) was greater than 100 µM. It also gave a TGI (U251 CNS) greater than 100 µM.

Molecule O=C1CCC(=O)C(C(=O)CCC(=O)Nc2cccc(Cl)c2)C1 (stereo not drawn) has a TGI (COLO 205 colon) greater than 100 µM, a TGI (NCI-H23 lung) greater than 100 µM and a TGI (NCI-H522 lung) greater than 100 µM. It also gave a TGI (OVCAR-5 ovarian) greater than 100 µM, a TGI (RPMI-8226 leukemia) greater than 100 µM and a TGI (SR leukemia) greater than 100 µM. It also gave a TGI (U251 CNS) greater than 100 µM.

With CCOC(=O)CNC(=O)C(CSC(=O)N(C)O)NC(=O)CCC(N)C(=O)O (stereo not drawn) the GI50 (COLO 205 colon) was greater than 2000 µM, the GI50 (NCI-H23 lung) was greater than 2000 µM and the TGI (NCI-H23 lung) was greater than 2000 µM. It also gave a GI50 (NCI-H522 lung) greater than 2000 µM, a TGI (NCI-H522 lung) greater than 2000 µM and a GI50 (RPMI-8226 leukemia) greater than 2000 µM. The TGI (RPMI-8226 leukemia) was greater than 2000 µM, the GI50 (SK-MEL-2 melanoma) was greater than 2000 µM and the TGI (SK-MEL-2 melanoma) was greater than 2000 µM. It also gave a TGI (SR leukemia) of 1.02 µM, a GI50 (U251 CNS) greater than 2000 µM and a TGI (U251 CNS) greater than 2000 µM.

Work on CC1=NN(c2ccccc2)C(=O)C1N=Nc1ccc(Br)c(C)c1 (stereo not drawn) yielded a TGI (COLO 205 colon) greater than 100 µM, a TGI (NCI-H23 lung) greater than 100 µM and a TGI (OVCAR-5 ovarian) greater than 100 µM. It also gave a TGI (RPMI-8226 leukemia) greater than 100 µM, a TGI (SK-MEL-2 melanoma) greater than 100 µM and a TGI (U251 CNS) greater than 100 µM.

Molecule CC(C)[O-].CC(C)[O-].[O-]c1cccc2cccnc12.[O-]c1cccc2cccnc12.[Ti+4] has a GI50 (COLO 205 colon) of 24.7 µM, a TGI (COLO 205 colon) greater than 100 µM and a GI50 (NCI-H23 lung) greater than 100 µM. The TGI (NCI-H23 lung) was greater than 100 µM, the GI50 (NCI-H522 lung) was 1.41 µM and 1.93 µM and the TGI (NCI-H522 lung) was 2.84 µM and 5.68 µM. It also gave a GI50 (OVCAR-5 ovarian) of 51.1 µM, a TGI (OVCAR-5 ovarian) greater than 100 µM and a GI50 (SK-MEL-2 melanoma) of 31.3 µM. For the same molecule, the TGI (SK-MEL-2 melanoma) was greater than 100 µM, the GI50 (U251 CNS) was greater than 100 µM and the TGI (U251 CNS) was greater than 100 µM.

CCOC(=O)N1CCC(=O)C[C@@H]1C/C=C/P1(=O)O[C@H](c2ccccc2)C(C)N1C(C)C (stereo partly drawn) was tested, and the TGI (NCI-H23 lung) was greater than 100 µM, the TGI (NCI-H522 lung) was greater than 100 µM and the TGI (OVCAR-5 ovarian) was greater than 100 µM. The TGI (RPMI-8226 leukemia) was greater than 100 µM, the TGI (SK-MEL-2 melanoma) was greater than 100 µM and the TGI (SR leukemia) was greater than 100 µM. The TGI (U251 CNS) was greater than 100 µM.

C=C1CC(C/C=C(\C)CC2CC(=C)C(=O)O2)OC1=O (stereo not drawn) gave a TGI (COLO 205 colon) greater than 100 µM, a TGI (NCI-H23 lung) greater than 100 µM and a TGI (OVCAR-5 ovarian) greater than 100 µM. For the same molecule, the TGI (SK-MEL-2 melanoma) was greater than 100 µM, the TGI (SR leukemia) was greater than 100 µM and the TGI (U251 CNS) was greater than 100 µM.
